System: Wistar rats
Test: Water-lick (Vogel) Conflict Test in rats
Assay type: in vivo
Details: for Percent of Animals Tested With >20 Shock Episodes / Mean Shock Episodes (1 mA): pretreatment 120 minutes; for Mean Shock Episodes (1 mA): Mean ± SEM
Method: In each experiment, naive adult male Wistar rats between 170 to 200 g were randomly divided into groups (N=10-30/group) and deprived of water for 48 hours prior to testing. Food was available on Day 1 and removed 24 hours prior to test Day 2.
Apparatus: The modular operant test cage (Coulbourn Instruments) measures 10.25×12×12 in. The test chambers feature 3 modular bays on each side of the cage for a total of 6 bays. A module optical lickometer is mounted on one side of the chamber 5 cm above the grid floor. The lickometer is used to measure licking-drinking from a water bottle mounted outside the test chamber. A photo beam is piped via glass rods to the tip of the drink tube across a gap at the end of the tube. The animals tongue breaks the beam on each lick. The front and back of the test chamber is made of clear Plexiglas. The front door is covered to reduce distractions from inside the test room. The back of the test chamber is facing a wall, away from the flow of traffic within the testing room and remains uncovered to provide the opportunity for observations during testing. Shocks are delivered using a (Coulbourn) programmable universal shocker calibrated to deliver a 1 mA shock for 1 second through the drink tube.
Procedure: On Day 1, after a 24-hour water deprivation, experimental subjects were placed into the test chambers and allowed to drink unpunished. Drinking was limited to 500 responses or approximately 5 mL of water during a 10 minute session. Immediately following the unpunished drinking session, rats were returned to their home cages, deprived of water for an additional 24 hours and was food deprived. […] After the pretreatment period rats were placed into a test chamber and allowed to drink for 10 minutes. After every 10 licks, rats received a 1-second shock (1 mA) through the drink tube. Thus, a conflict or anxiety-producing situation exists. Rats are motivated to drink; however, they are inhibited by the shock. Anxiety is reflected by the low amounts of drinking. Standard anxiolytic drugs produce effects that allow rats to overcome this behavioral inhibition and drink despite the shock.
All data were analyzed using a Kruskal-Wallis one Way Analysis of Variance on Ranks and Mann-Whitney Rank Sum Tests.
Quantitative Analysis: A quantitative analysis represents the percentage of subjects within a treatment group that receives >20 shock episodes during a test session. This number provides a quantitative comparison regarding the distribution of the responses.
Compound A was dissolved in water and tested orally as a solution from 0.3 to 100 mg/kg in rats and 3 to 300 mg/kg in mice. Dosages are expressed as the active moiety and were administered in a volume of 1 mL/kg for rats and 10 mL/kg for mice.

[1] = doses 3× and 10× the Vogel MED (10 and 30 mg/kg)
[2] = oral, 2 hour pretreatment, rats

C[C@H]1CC(CN)(CC(=O)O)C[C@@H]1C [Compound A, (3S, 4S)-(1-Aminomethyl-3,4-dimethyl-cyclopentyl)-acetic acid]
Percent of Animals Tested With >20 Shock Episodes (0.3 mg/kg PO): 20% | Mean Shock Episodes (1 mA) (0.3 mg/kg PO): 16.5 ± 8.7 | Percent of Animals Tested With >20 Shock Episodes (1 mg/kg PO): 10% | Mean Shock Episodes (1 mA) (1 mg/kg PO): 11.7 ± 4.2 | Percent of Animals Tested With >20 Shock Episodes (3 mg/kg PO): 17% | Mean Shock Episodes (1 mA) (3 mg/kg PO): 16.7 ± 4.3 | Shock episodes (time-course) (3 mg/kg, 1 hr post treatment): 38.8 ± 12.2 | Shock episodes (time-course) (3 mg/kg, 2 hr post treatment): 55.7 ± 12.7 | Shock episodes (time-course) (3 mg/kg, 4 hr post treatment): 38.4 ± 12.2 | Shock episodes (time-course) (3 mg/kg, 6 hr post treatment): 44.7 ± 13.3 | Shock episodes (time-course) (3 mg/kg, 8 hr post treatment): 7.7 ± 1.2 | Percent of Animals Tested With >20 Shock Episodes (10 mg/kg PO): 43% | Mean Shock Episodes (1 mA) (10 mg/kg PO): 33.8 ± 6.2 | Shock episodes (time-course) (10 mg/kg, 30 min. post treatment): 14.1 ± 3.1 | Shock episodes (time-course) (10 mg/kg, 1 hr post treatment): 28.2 ± 7.6 | Shock episodes (time-course) (10 mg/kg, 2 hr post treatment): 29.6 ± 8.0 | Shock episodes (time-course) (10 mg/kg, 4 hr post treatment): 47.7 ± 11.7 | Shock episodes (time-course) (10 mg/kg, 6 hr post treatment): 38.4 ± 13.2 | Percent of Animals Tested With >20 Shock Episodes (30 mg/kg PO): 67% | Mean Shock Episodes (1 mA) (30 mg/kg PO): 46.3 ± 7.6 | Shock episodes (time-course) (30 mg/kg, 30 min. post treatment): 35.8 ± 12.6 | Shock episodes (time-course) (30 mg/kg, 1 hr post treatment): 93.3 ± 12.1 | Shock episodes (time-course) (30 mg/kg, 2 hr post treatment): 88.4 ± 7.4 | Shock episodes (time-course) (30 mg/kg, 4 hr post treatment): 73.5 ± 12.2 | Shock episodes (time-course) (30 mg/kg, 6 hr post treatment): 97.4 ± 11.1 | Percent of Animals Tested With >20 Shock Episodes (100 mg/kg PO): 90% | Mean Shock Episodes (1 mA) (100 mg/kg PO): 52.8 ± 10.9 | Time of peak activity after treatment (10 and 30 mg/kg respectively): 4 to 6 h | Activity maintained through (MED dose 3 mg/kg): 6 h | Onset of activity after treatment (MED dose 3 mg/kg): 2 h | Time of peak activity (MED dose 3 mg/kg): 2 h | Activity maintained through [1]: 6 h | Onset of activity after treatment [1]: 1 h | Dose of maximal anti-conflict effects [2]: 100 mg/kg | MED for anti-conflict activity [2]: 3 mg/kg
